Experiment [1] deals with Mycobacterium tuberculosis. Put plainly: Antimycobacterial activity against Mycobacterium tuberculosis H37Rv ATCC 27294 after 5 days by Alamar blue assay. It is filed as functional. For orientation: Alamar Blue is a resazurin reagent that responds to reducing activity.
Another experiment deals with Vero. In words: Cytotoxicity against Chlorocebus aethiops (African green monkey) Vero cells after 72 hr by MTT assay. It is filed as cell-based. Conditions: Chlorocebus sabaeus.

Values after ≈ are worked out from the molar mass of the structure shown. Active and inactive are the calls of the source. The calls are words filed in the database; no cut-off is given here.

What is called MIC is the lowest concentration that inhibits growth of the organism. The IC50 is the concentration at which inhibition is half-maximal. The low end stands for inhibition by little substance, the high end for a need for much substance.

Turning to `Cc1ccc(-c2nc3sc(S(N)(=O)=O)nn3c2-c2ccccc2)cc1`, it took 10 µg/mL (≈ 27 µM) to inhibit growth in experiment [1] (H37Rv ATCC 27294, 120 h) (MIC). For the same compound, the IC50 in the experiment with Vero was 168 µM.
Turning to `COc1ccc(-c2c(-c3ccc(SC)cc3)nc3sc(-c4ccc(F)cc4)nn23)cc1`, in experiment [1] (H37Rv ATCC 27294, 120 h), the MIC was 10 µg/mL (≈ 22.3 µM). This compound came in with an IC50 in the experiment with Vero of 116 µM.
On to `COc1ccc(-c2c(-c3ccccc3)nc3sc(C(F)(F)F)nn23)cc1`, for which the MIC entry in experiment [1] is “inactive”.
Consider `COc1ccc(-c2nc3sc(-c4ccc(F)cc4)nn3c2-c2ccc(OC)cc2)cc1`, for which the minimal inhibitory concentration (MIC) in experiment [1] (H37Rv ATCC 27294, 120 h) was determined as 5 µg/mL (≈ 11.6 µM). Also, the midpoint of inhibition with Vero, the IC50, lay at 163 µM.
In the same order, the values of `COc1ccc(-c2c(-c3ccccc3)nc3sc(S(N)(=O)=O)nn23)cc1` are 5 µg/mL (≈ 12.9 µM) and 204 µM.
On to `NNC(=O)c1ccncc1` [ISONIAZID], for which 0.25 µg/mL (≈ 1.82 µM) was the least that counted as inhibitory in experiment [1] (H37Rv ATCC 27294, 120 h) (MIC). The same compound registered a concentration for half-maximal inhibition (IC50) with Vero of over 450 µM.
Consider `COc1ccc(-c2c(-c3ccccc3)nc3sc(-c4ccc(F)cc4)nn23)cc1`, for which the MIC entry in experiment [1] was “inactive”.
For the compound `COc1ccc(-c2nn3c(-c4ccc(OC)cc4)c(-c4ccc(SC)cc4)nc3s2)cc1`, in experiment [1] (H37Rv ATCC 27294, 120 h), the lowest concentration to inhibit growth (MIC) was 10 µg/mL (≈ 21.8 µM). This compound also yielded an IC50 with Vero of 120 µM.
For `CSc1ccc(-c2nc3sc(S(N)(=O)=O)nn3c2-c2ccccc2)cc1`, the MIC in experiment [1] (H37Rv ATCC 27294, 120 h) is 2.5 µg/mL (≈ 6.21 µM). This compound yielded an IC50 with Vero of 192 µM.
In the same order, the values of `COc1c(N2CCNC(C)C2)c(F)cc2c(=O)c(C(=O)O)cn(C3CC3)c12` (stereo not given) [GATIFLOXACIN] are 1 µg/mL (≈ 2.66 µM) and over 550 µM.
For `COc1ccc(-c2nc3sc(C(F)(F)F)nn3c2-c2ccc(OC)cc2)cc1`, the lowest concentration to inhibit growth in experiment [1] (H37Rv ATCC 27294, 120 h) (MIC) was 1.25 µg/mL (≈ 3.08 µM). Besides, in the experiment with Vero, inhibition was half-maximal at 147 µM (IC50).
For `COc1ccc(-c2nn3c(-c4ccccc4)c(-c4ccc(SC)cc4)nc3s2)cc1` the same measures were 10 µg/mL (≈ 23.3 µM) and 135 µM.
Regarding `COc1ccc(-c2nn3c(-c4ccccc4)c(-c4ccc(C)cc4)nc3s2)cc1`, the MIC entry in experiment [1] is “inactive”.
Turning to `CSc1ccc(-c2nc3sc(C(F)(F)F)nn3c2-c2ccccc2)cc1`, inhibition of growth in experiment [1] (H37Rv ATCC 27294, 120 h) (MIC) required 10 µg/mL (≈ 25.5 µM). Also, half-maximal inhibition in the experiment with Vero (IC50) required 140 µM.
Take `CSc1ccc(-c2nc3sc(-c4ccc(F)cc4)nn3c2-c2ccccc2)cc1`: the MIC entry in experiment [1] is “inactive”.
Take `COc1ccc(-c2nn3c(-c4ccc(OC)cc4)c(-c4ccc(OC)cc4)nc3s2)cc1`: the MIC in experiment [1] (H37Rv ATCC 27294, 120 h) came out at 5 µg/mL (≈ 11.3 µM). Also, the IC50 with Vero was found to be 162 µM.
For `COc1ccc(-c2c(-c3ccc(SC)cc3)nc3sc(C(F)(F)F)nn23)cc1` the same measures were 5 µg/mL (≈ 11.9 µM) and 123 µM.
In the same order, the values of `COc1ccc(-c2nc3sc(S(N)(=O)=O)nn3c2-c2ccc(OC)cc2)cc1` are 1.25 µg/mL (≈ 3 µM) and 247 µM.
For the compound `Cc1ccc(-c2nc3sc(C(F)(F)F)nn3c2-c2ccccc2)cc1`, the MIC result in experiment [1] was “inactive”.
On to `COc1ccc(-c2c(-c3ccc(SC)cc3)nc3sc(S(N)(=O)=O)nn23)cc1`, for which it took 2.5 µg/mL (≈ 5.78 µM) to inhibit growth in experiment [1] (H37Rv ATCC 27294, 120 h) (MIC). The compound further showed an IC50 in the experiment on Vero of 213 µM.

For the origin of these results see ChEMBL document CHEMBL3044715, “Synthesis, spectral studies and biological evaluation of a novel series of 2-substituted-5,6-diarylsubstituted imidazo(2,1-b)-1,3,4-thiadiazole derivatives as possible anti-tubercular agents” (Med Chem Res, 2012).
